Experiment [1] relates to RKIP. As to the kind of experiment: Immunoblotting of transfected wild-type and mutant RKIP. Particulars: 10 μM, 24 h (FIG. 8E). It counts as cell-based. On the procedure: pCMV RKIP-HA was provided by Keum G (David Geffen School of Medicine at University of California, Los Angeles, CA, USA). pCMV RKIP-T101A-HA and pCMV RKIP-T101D-HA were generated by Dr. J. H. Hwang (Pusan National University). pcDNA3 NF2-FLAG, pRK5 TGF beta type 1 receptor-FLAG, and TGF beta type 2 receptor-HA were obtained from Addgene (Cambridge, MA, USA). Transfection was performed using the Jetpei transfection agent (Polyplus New York, USA) for mammalian expression of these vectors.
In other words, cells were seeded at a density of 2×10^5 cells/well in 12-well plates and cultured overnight before transfection. The vector (1.5 μg) was mixed with 1.5 μl of Jetpei reagent dissolved in 150 mM NaCl solution. The mixture was reacted at room temperature for 15 minutes, and then added to the cells. After 3 hours, the serum-free medium 15 was replaced with medium supplemented with 10% FBS.
Cells were harvested and lysed using RIPA buffer [50 mM Tris-Cl, pH 7.5, 150 mM NaCl, 1% NP-40, 0.1% SDS, and 10% sodium deoxycholate] to examine cellular signaling. Protein concentrations in samples were measured using Bio-Rad (Hercules, CA, USA) protein assay kits and BSA standards. […] The blots were detected using an HRP-conjugated secondary antibody using ECL kit (Intron, Seoul, Korea).
In general terms: In western blotting, separated proteins are transferred to a membrane and probed.

The test system of experiment [2] is RKIP. As to the kind of experiment: RKIP expression by Western blotting in HEI-193 cells. The experiment is classed as cell-based, human. Particulars: compounds 10 μM, 24 h (FIG. 1A) or 72 h (FIG. 2), Western blot. On the procedure:
(§1) Cells were harvested and lysed using RIPA buffer [50 mM Tris-Cl, pH 7.5, 150 mM NaCl, 1% NP-40, 0.1% SDS, and 10% sodium deoxycholate] to examine cellular signaling. Protein concentrations in samples were measured using Bio-Rad (Hercules, CA, USA) protein assay kits and BSA standards. The samples (20 μg protein per lane) were separated by sodium dodecyl sulfate-polyacrylamide gel electrophoresis (SDS-PAGE), transferred to Immobilon-P^SQ transfer membranes (Millipore Corp., MA, USA), which were then cultured with 3% skim milk-containing TBS-T buffer (Tris-HCl-based buffer containing 20 mM Tris pH 7.6, 150 mM NaCl, and 0.05% Tween 20) for 1 hour at room temperature and then reacted with primary antibody in TBS-T overnight at 4° C. The membranes were then washed and reacted with secondary horseradish peroxidase (HRP)-conjugated antibodies [goat anti-mouse, goat anti-rabbit, and mouse anti-goat antibodies (Pierce, Thermo Fisher Scientific, Inc., Rockford, IL, USA)] in TBS-T at room temperature for 2 hours. The blots were detected using an HRP-conjugated secondary antibody using ECL kit (Intron, Seoul, Korea).
Because RKIP degradation in NF2 cells is clearly known (Mol Cancer Ther 17, 2271-2284, 2018), after first treating 260 novel synthetic compounds, RKIP expression was measured in HEI-193, a human NF2 cell line.

Experiment [3] has as its system HEI-193 cells. As to the kind of experiment: Cell-cycle analysis by FACS in HEI-193 cells. It counts as cell-based, human. The conditions noted are these: 10 μM, 4 days (FIGS. 12A, 13A). The method, then: […] After 4 days, the cells were fixed with 70% ethanol and labeled with propidium iodine. These samples were analyzed by FACS for cell-cycle analysis. After 7 days of treatment with DMSO (control group), PRG-N-01, or TEW7197 at the indicated concentration, the cells were fixed with 4% paraformaldehyde and then stained with indicated antibody. A minimum of 10,000 cells were analyzed using an Attune NxT Flow cytometer (Thermo Fisher Scientific, Inc., Rockford, IL, USA).

Experiment [4] relates to NF2-transfected HEI-193 cells. Kind of experiment: MTT and immunoblotting in NF2-transfected HEI-193 cells. The experiment is classed as cell-based, human. Particulars: NF2-transfected HEI-193 cells (FIGS. 8B, 8C). On the procedure: (§2) In other words, cells were seeded at a density of 2×10^5 cells/well in 12-well plates and cultured overnight before transfection. The vector (1.5 μg) was mixed with 1.5 μl of Jetpei reagent dissolved in 150 mM NaCl solution. The mixture was reacted at room temperature for 15 minutes, and then added to the cells. After 3 hours, the serum-free medium 15 was replaced with medium supplemented with 10% FBS. Cells were harvested and lysed using RIPA buffer [50 mM Tris-Cl, pH 7.5, 150 mM NaCl, 1% NP-40, 0.1% SDS, and 10% sodium deoxycholate] to examine cellular signaling. Protein concentrations in samples were measured using Bio-Rad (Hercules, CA, USA) protein assay kits and BSA standards. […] The blots were detected using an HRP-conjugated secondary antibody using ECL kit (Intron, Seoul, Korea). […] Plates were then cultured at 37° C. for 4 hours, the MTT solution was removed, the precipitated substances were dissolved using a solution (DMSO:ethanol=1:1), and an amount of formazan dye produced was quantified by measuring the absorbance at 560 nm using an ELISA microplate reader (Thermo Fisher Scientific, MA, USA).

Experiment [5] relates to HEI-193 cells. As to the kind of experiment: Microarray gene expression profile of HEI-193 cells. The experiment is classed as cell-based, human. Particulars: PRG-N-01-treated HEI-193 cells vs control. The method, then: Total RNA (500 ng) was extracted using an RNAeasy kit (Qiagen). RNA labeling, hybridization on Human Gene 1.0 ST array (Affymetrix), and data analysis were performed using DNA Link (Seoul, Korea). Genes showing at least a 2-fold difference in each cell line were selected for further analysis.

Experiment [6] concerns NF2-transfected mouse schwannoma cells. As to the kind of experiment: MTT and immunoblotting in NF2-transfected mouse schwannoma cells. The experiment is classed as cell-based. The conditions noted are these: NF2-transfected mouse schwannoma cells (FIGS. 9C, 9D). On the procedure: as §2
Experiment [7] concerns RKIP. As to the kind of experiment: RKIP / p-Erk immunoblotting in mouse schwannoma (mouse NF2) cells. It counts as cell-based. The method, then:
as §1

Structures are written as SMILES. Entries after “also recorded” stand apart in the source; their conditions may differ.

Take `CCN(CC)CCOc1ccc(-c2nnn(Cc3ccc(OC)cc3)c2N)cc1` [PRG-N-01, 4-(4-(2-(diethylamino)ethoxy)phenyl)-1-(4-methoxybenzyl)-1H-1,2,3-triazol-5-amino]: the “wild-type RKIP expression” value with RKIP [1] (HEI-193 and mouse schwannoma cells transfected with WT RKIP) is recorded as “induced wild-type RKIP expression”. For the same molecule, the “expression of RKIP mutants (T101A stable form, T101D unstable form)” value in the experiment with RKIP [1] (HEI-193 and mouse schwannoma cells transfected with mutants) was “did not alter the expression”. The RKIP expression result in the experiment with RKIP [2] is reported as “induced RKIP expression; also recorded: increased RKIP expression”. The cell cycle entry with HEI-193 cells [3] was “cell cycle arrest was induced at the G1 phase”. The “chemical effect (antiproliferating effect, RKIP induction, p-Erk suppression)” value in experiment [4] was “no chemical effect”. For the same molecule, in the experiment on HEI-193 cells [5], the “Log2Ratio, gene FABP3 (fatty acid binding protein 3, muscle and heart)” value is given as −2.272; the “Log2Ratio, gene HIST1H1B” value is −2.475; the “Log2Ratio, gene MEST” value is reported as −1.95; the “Log2Ratio, gene MMP1” value was 2.163. In the experiment with HEI-193 cells [5], the “Log2Ratio, gene MSMO1” value is given as −1.988; the “Log2Ratio, gene OLFML3” value is given as −2.099; the “Log2Ratio, gene PBK” value was −1.976; the “Log2Ratio, gene PLK1 (polo-like kinase 1)” value was −2.041. For the same molecule, in the experiment on HEI-193 cells [5], the “Log2Ratio, gene PRR11” value is listed as −2.207; the “Log2Ratio, gene TOP2A” value is on record as −1.931; the “cell-cycle-related genes (PLK1, CENPE) expression” value is “downregulated”; the “lipid metabolism-related genes (PNILPRP3, NR4A2, ABCA1) expression” value was “strikingly upregulated”. For the same molecule, the “tenascin C gene expression (readout of canonical TGF-β signaling)” value in the experiment on HEI-193 cells [5] was “considerably upregulated”. Also, in experiment [6], the “chemical effect (antiproliferating effect, RKIP induction, p-Erk suppression)” value is given as “no chemical effect”. Moreover, in the experiment with RKIP [7] (mouse NF2 cell line), the RKIP expression entry was “increased RKIP expression”. The “RKIP induction and p-Erk suppression” value in the experiment with RKIP [7] (mouse schwannoma cells, 36 h (FIG. 9B)) is recorded as “observed only in actual mouse schwannoma”.

Values taken from patent US20240092741A1, “COMPOSITION FOR PREVENTION OR TREATMENT OF NEUROFIBROMATOSIS TYPE 2 SYNDROME” (PRG S&TECH INC., priority 2021, published 2024).
